Values after ≈ are worked out from the molar mass of the structure shown.
Tests used:
[1] = tested on: Escherichia coli; experiment: Antimicrobial activity against Escherichia coli UB1005 after 24 hrs by NCCLS-protocol based assay; type: functional; conditions: UB1005, 24 h
[2] = tested on: Escherichia coli; experiment: Antimicrobial activity against Escherichia coli K88 after 24 hrs by NCCLS-protocol based assay; type: functional; conditions: K88, 24 h
[3] = tested on: Escherichia coli; experiment: Antimicrobial activity against Escherichia coli K99 after 24 hrs by NCCLS-protocol based assay; type: functional; conditions: K99, 24 h
[4] = tested on: Pseudomonas aeruginosa; experiment: Antimicrobial activity against Pseudomonas aeruginosa ATCC 27853 after 24 hrs by NCCLS-protocol based assay; type: functional; conditions: ATCC 27853, 24 h
[5] = tested on: Pseudomonas aeruginosa; experiment: Antimicrobial activity against Pseudomonas aeruginosa PAO1 after 24 hrs by NCCLS-protocol based assay; type: functional; conditions: PAO1, 24 h
[6] = tested on: Pseudomonas aeruginosa; experiment: Antimicrobial activity against Pseudomonas aeruginosa 26305 clinical isolates after 24 hrs by NCCLS-protocol based assay; type: functional; conditions: Pseudomonas aeruginosa, 26305, 24 h
[7] = tested on: Pseudomonas aeruginosa; experiment: Antimicrobial activity against Pseudomonas aeruginosa CICC 21625 clinical isolates after 24 hrs by NCCLS-protocol based assay; type: functional; conditions: CICC 21625, 24 h
[8] = tested on: Pseudomonas aeruginosa; experiment: Antimicrobial activity against Pseudomonas aeruginosa 25349 clinical isolates after 24 hrs by NCCLS-protocol based assay; type: functional; conditions: Pseudomonas aeruginosa, 25349, 24 h
[9] = tested on: Salmonella typhimurium; experiment: Antimicrobial activity against Salmonella typhimurium ATCC 14028 after 24 hrs by NCCLS-protocol based assay; type: functional, Salmonella enterica subsp. enterica serovar Typhimurium; conditions: Salmonella enterica, ATCC 14028, 24 h
[10] = tested on: Acinetobacter baumannii; experiment: Antimicrobial activity against Acinetobacter baumannii after 24 hrs by NCCLS-protocol based assay; type: functional
[11] = tested on: Klebsiella pneumoniae; experiment: Antimicrobial activity against Klebsiella pneumoniae after 24 hrs by NCCLS-protocol based assay; type: functional
[12] = tested on: Erythrocyte; experiment: Hemolytic activity against human RBC after 1 hr; type: ADME, cell-based
[13] = tested on: RAW264.7; experiment: Cytotoxicity against mouse RAW264.7 cells assessed as cell death after 18 to 24 hrs by MTT assay; type: cell-based
[14] = Selectivity ratio of HC10 for human RBC to geometric mean of the peptide MBC for bacteria
[15] = tested on: Escherichia coli; experiment: Bactericidal activity against Escherichia coli ATCC 25922 incubated for 4 hrs followed by culture spread on agar plates and cultured overnight in presence of CaCl2; type: functional; conditions: ATCC 25922, 4 h, read-out: MBC>99.9
[16] = tested on: Escherichia coli; experiment: Bactericidal activity against Escherichia coli ATCC 25922 incubated for 4 hrs followed by culture spread on agar plates and cultured overnight in presence of ZnCl2; type: functional; conditions: ATCC 25922, 4 h, read-out: MBC>99.9
[17] = tested on: Escherichia coli; experiment: Bactericidal activity against Escherichia coli ATCC 25922 incubated for 4 hrs followed by culture spread on agar plates and cultured overnight in presence of FeCl3; type: functional; conditions: ATCC 25922, 4 h, read-out: MBC>99.9
[18] = tested on: Escherichia coli; experiment: Bactericidal activity against Escherichia coli ATCC 25922 incubated for 4 hrs followed by culture spread on agar plates and cultured overnight in presence of NH4Cl; type: functional; conditions: ATCC 25922, 4 h, read-out: MBC>99.9
[19] = tested on: Escherichia coli; experiment: Bactericidal activity against Escherichia coli ATCC 25922 incubated for 4 hrs followed by culture spread on agar plates and cultured overnight in presence of MgCl2; type: functional; conditions: ATCC 25922, 4 h, read-out: MBC>99.9
[20] = tested on: Escherichia coli; experiment: Bactericidal activity against Escherichia coli ATCC 25922 incubated for 4 hrs followed by culture spread on agar plates and cultured overnight in presence of 25% serum albumin; type: functional; conditions: ATCC 25922, 4 h, read-out: MBC>99.9
[21] = tested on: Escherichia coli; experiment: Bactericidal activity against Escherichia coli ATCC 25922 incubated for 4 hrs followed by culture spread on agar plates and cultured overnight in presence of 12.5% serum albumin; type: functional; conditions: ATCC 25922, 4 h, read-out: MBC>99.9
[22] = tested on: Escherichia coli; experiment: Bactericidal activity against Escherichia coli ATCC 25922 incubated for 4 hrs followed by culture spread on agar plates and cultured overnight in presence of 4 mg/ml trypsin; type: functional; conditions: ATCC 25922, 4 h, read-out: MBC>99.9
[23] = tested on: Escherichia coli; experiment: Bactericidal activity against Escherichia coli ATCC 25922 incubated for 4 hrs followed by culture spread on agar plates and cultured overnight in presence of 2 mg/ml trypsin; type: functional; conditions: ATCC 25922, 4 h, read-out: MBC>99.9
[24] = tested on: Escherichia coli; experiment: Bactericidal activity against Escherichia coli ATCC 25922 incubated for 4 hrs followed by culture spread on agar plates and cultured overnight in presence of 0.5 mg/ml trypsin; type: functional; conditions: ATCC 25922, 4 h, read-out: MBC>99.9
[25] = tested on: Escherichia coli; experiment: Bactericidal activity against Escherichia coli ATCC 25922 incubated for 4 hrs followed by culture spread on agar plates and cultured overnight in presence of 0.25 mg/ml trypsin; type: functional; conditions: ATCC 25922, 4 h, read-out: MBC>99.9
[26] = tested on: Escherichia coli; experiment: Bactericidal activity against Escherichia coli ATCC 25922 incubated for 4 hrs followed by culture spread on agar plates and cultured overnight in presence of 0.125 mg/ml trypsin; type: functional; conditions: ATCC 25922, 4 h, read-out: MBC>99.9
[27] = tested on: Escherichia coli; experiment: Bactericidal activity against Escherichia coli ATCC 25922 incubated for 4 hrs followed by culture spread on agar plates and cultured overnight in presence of 1 mg/ml chymotrypsin; type: functional; conditions: ATCC 25922, 4 h, read-out: MBC>99.9
[28] = tested on: Escherichia coli; experiment: Bactericidal activity against Escherichia coli ATCC 25922 incubated for 4 hrs followed by culture spread on agar plates and cultured overnight in presence of 0.25 mg/ml chymotrypsin; type: functional; conditions: ATCC 25922, 4 h, read-out: MBC>99.9
[29] = tested on: Escherichia coli; experiment: Bactericidal activity against Escherichia coli ATCC 25922 incubated for 4 hrs followed by culture spread on agar plates and cultured overnight in presence of 0.125 mg/ml chymotrypsin; type: functional; conditions: ATCC 25922, 4 h, read-out: MBC>99.9
[30] = tested on: Escherichia coli; experiment: Bactericidal activity against Escherichia coli UB1005 incubated for 4 hrs followed by culture spread on agar plates and cultured overnight; type: functional; conditions: UB1005, 4 h, read-out: MBC>99.9
[31] = tested on: Escherichia coli; experiment: Bactericidal activity against Escherichia coli 078 incubated for 4 hrs followed by culture spread on agar plates and cultured overnight; type: functional; conditions: Escherichia coli, 078, 4 h; read-out: MBC>99.9
[32] = tested on: Escherichia coli; experiment: Bactericidal activity against Escherichia coli K99 incubated for 4 hrs followed by culture spread on agar plates and cultured overnight; type: functional; conditions: K99, 4 h, read-out: MBC>99.9
[33] = tested on: Pseudomonas aeruginosa; experiment: Bactericidal activity against Pseudomonas aeruginosa 25349 clinical isolates incubated for 4 hrs followed by culture spread on agar plates and cultured overnight; type: functional; conditions: Pseudomonas aeruginosa, 25349, 4 h; read-out: MBC>99.9
[34] = tested on: Salmonella typhimurium; experiment: Bactericidal activity against Salmonella typhimurium ATCC 14028 incubated for 4 hrs followed by culture spread on agar plates and cultured overnight; type: functional, Salmonella enterica subsp. enterica serovar Typhimurium; conditions: Salmonella enterica, ATCC 14028, 4 h; read-out: MBC>99.9
[35] = tested on: Salmonella typhimurium; experiment: Bactericidal activity against Salmonella typhimurium C7731 incubated for 4 hrs followed by culture spread on agar plates and cultured overnight; type: functional, Salmonella enterica subsp. enterica serovar Typhimurium; conditions: Salmonella enterica, C7731, 4 h; read-out: MBC>99.9
[36] = Bactericidal activity against Salmonella pullorum C7913 incubated for 4 hrs followed by culture spread on agar plates and cultured overnight; type: functional, Salmonella enterica subsp. enterica serovar Pullorum; conditions: Salmonella enterica, C7913, 4 h; read-out: MBC>99.9
[37] = tested on: Klebsiella pneumoniae; experiment: Bactericidal activity against Klebsiella pneumoniae incubated for 4 hrs followed by culture spread on agar plates and cultured overnight; type: functional; conditions: read-out: MBC>99.9

## CC[C@H](C)[C@H](NC(=O)CN)C(=O)NCC(=O)N[C@@H](C)C(=O)N[C@H](C(=O)N[C@@H](CC(C)C)C(=O)N[C@@H](CCCCN)C(=O)N[C@H](C(=O)N[C@@H](CC(C)C)C(=O)N[C@H](C(=O)N[C@H](C(=O)NCC(=O)N[C@@H](CC(C)C)C(=O)N1CCC[C@H]1C(=O)N[C@@H](C)C(=O)N[C@@H](CC(C)C)C(=O)N[C@H](C(=O)N[C@@H](CO)C(=O)N[C@@H](Cc1c[nH]c2ccccc12)C(=O)N[C@H](C(=O)N[C@@H](CCCCN)C(=O)N[C@@H](CCCNC(=N)N)C(=O)N[C@@H](CCCCN)C(=O)N[C@@H](CCCNC(=N)N)C(=O)N[C@@H](CCC(N)=O)C(=O)N[C@@H](CCC(N)=O)C(N)=O)[C@@H](C)CC)[C@@H](C)CC)[C@@H](C)O)[C@@H](C)O)C(C)C)C(C)C [MELITTIN]
[1]
  MIC95: 2 µM (≈ 5.69 µg/mL)
[2]
  MIC95: 1 µM (≈ 2.85 µg/mL)
[3]
  MIC95: 2 µM (≈ 5.69 µg/mL)
[4]
  MIC95: 2 µM (≈ 5.69 µg/mL)
[5]
  MIC95: 2 µM (≈ 5.69 µg/mL)
[6]
  MIC95: 2 µM (≈ 5.69 µg/mL)
[7]
  MIC95: 4 µM (≈ 11.4 µg/mL)
[8]
  MIC95: 2 µM (≈ 5.69 µg/mL)
[9]
  MIC95: 1 µM (≈ 2.85 µg/mL)
[10]
  MIC95: 1 µM (≈ 2.85 µg/mL)
[11]
  MIC95: 2 µM (≈ 5.69 µg/mL)
[12]
  HC10: 2 µM
[13]
  IC50: 2.09 µM
[14]
  Ratio: 0.92
[15]
  MBC: 8 µM
[16]
  MBC: 2 µM
[17]
  MBC: 2 µM
[18]
  MBC: 2 µM
[19]
  MBC: 4 µM
[20]
  MBC: 64 µM
[21]
  MBC: 32 µM
[22]
  MBC: > 64 µM
[23]
  MBC: > 64 µM
[24]
  MBC: 4 µM
[25]
  MBC: 2 µM
[26]
  MBC: 2 µM
[27]
  MBC: > 64 µM
[28]
  MBC: 4 µM
[29]
  MBC: 2 µM
[30]
  MBC: 2 µM (≈ 5.69 µg/mL)
[31]
  MBC: 1 µM (≈ 2.85 µg/mL)
[32]
  MBC: 2 µM (≈ 5.69 µg/mL)
[33]
  MBC: 4 µM (≈ 11.4 µg/mL)
[34]
  MBC: 2 µM (≈ 5.69 µg/mL)
[35]
  MBC: 2 µM (≈ 5.69 µg/mL)
[36]
  MBC: 4 µM (≈ 11.4 µg/mL)
[37]
  MBC: 2 µM (≈ 5.69 µg/mL)

From ChEMBL document CHEMBL4316596, “Antimicrobial Peptides with High Proteolytic Resistance for Combating Gram-Negative Bacteria” (J Med Chem, 2019)
